Reference: the supplement of paper PMC11451515

Test system: SEM cells
Assay: cell viability relative to DMSO control; higher = less cytotoxic
Conditions: 48 h
Method in brief: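 Viability was expressed as a per-plate percentage of DMSO wells, with cell-free wells as background. Leukemia cells (NOMO1 or SEM at 500 cells/well, P12-Ichikawa at 1000 cells/well) were adapted for at least four passages in each medium and seeded in 1536-well plates (5 μl). Library compounds in DMSO were pin-dosed over an 11-point threefold series from 47 μM to 0.79 nM, and CellTiter-Glo One luminescence was read after 48 h at 37°C.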

[1] = HPLM + 10% dialyzed FBS, 0.000781 µM
[2] = HPLM + 10% dialyzed FBS, 0.00234 µM
[3] = HPLM + 10% dialyzed FBS, 0.00702 µM
[4] = HPLM + 10% dialyzed FBS, 0.0211 µM
[5] = HPLM + 10% dialyzed FBS, 0.0632 µM
[6] = HPLM + 10% dialyzed FBS, 0.19 µM
[7] = HPLM + 10% dialyzed FBS, 0.569 µM
[8] = HPLM + 10% dialyzed FBS, 1.71 µM
[9] = HPLM + 10% dialyzed FBS, 5.12 µM
[10] = HPLM + 10% dialyzed FBS, 15.4 µM
[11] = HPLM + 10% dialyzed FBS, 46.1 µM
[12] = RPMI 5 mM glucose + 10% FBS, 0.000781 µM
[13] = RPMI 5 mM glucose + 10% FBS, 0.00234 µM
[14] = RPMI 5 mM glucose + 10% FBS, 0.00702 µM
[15] = RPMI 5 mM glucose + 10% FBS, 0.0211 µM
[16] = RPMI 5 mM glucose + 10% FBS, 0.0632 µM
[17] = RPMI 5 mM glucose + 10% FBS, 0.19 µM
[18] = RPMI 5 mM glucose + 10% FBS, 0.569 µM
[19] = RPMI 5 mM glucose + 10% FBS, 1.71 µM
[20] = RPMI 5 mM glucose + 10% FBS, 5.12 µM
[21] = RPMI 5 mM glucose + 10% FBS, 15.4 µM
[22] = RPMI 5 mM glucose + 10% FBS, 46.1 µM
[23] = RPMI 5 mM glucose + 10% dialyzed FBS, 0.000781 µM
[24] = RPMI 5 mM glucose + 10% dialyzed FBS, 0.00234 µM
[25] = RPMI 5 mM glucose + 10% dialyzed FBS, 0.00702 µM
[26] = RPMI 5 mM glucose + 10% dialyzed FBS, 0.0211 µM
[27] = RPMI 5 mM glucose + 10% dialyzed FBS, 0.0632 µM
[28] = RPMI 5 mM glucose + 10% dialyzed FBS, 0.19 µM
[29] = RPMI 5 mM glucose + 10% dialyzed FBS, 0.569 µM
[30] = RPMI 5 mM glucose + 10% dialyzed FBS, 1.71 µM
[31] = RPMI 5 mM glucose + 10% dialyzed FBS, 5.12 µM
[32] = RPMI 5 mM glucose + 10% dialyzed FBS, 15.4 µM
[33] = RPMI 5 mM glucose + 10% dialyzed FBS, 46.1 µM

Row | Structure (SMILES) | cell viability [1] [%] | cell viability [2] [%] | cell viability [3] [%] | cell viability [4] [%] | cell viability [5] [%] | cell viability [6] [%] | cell viability [7] [%] | cell viability [8] [%] | cell viability [9] [%] | cell viability [10] [%] | cell viability [11] [%] | cell viability [12] [%] | cell viability [13] [%] | cell viability [14] [%] | cell viability [15] [%] | cell viability [16] [%] | cell viability [17] [%] | cell viability [18] [%] | cell viability [19] [%] | cell viability [20] [%] | cell viability [21] [%] | cell viability [22] [%] | cell viability [23] [%] | cell viability [24] [%] | cell viability [25] [%] | cell viability [26] [%] | cell viability [27] [%] | cell viability [28] [%] | cell viability [29] [%] | cell viability [30] [%] | cell viability [31] [%] | cell viability [32] [%] | cell viability [33] [%]
1 | CS[C@H]1SC[C@@H]2C(=O)N(C)[C@H](C(C)C)C(=O)OC[C@H](NC(=O)c3cnc4ccccc4n3)C(=O)N[C@H](C)C(=O)N(C)[C@H]1C(=O)N(C)[C@H](C(C)C)C(=O)OC[C@H](NC(=O)c1cnc3ccccc3n1)C(=O)N[C@H](C)C(=O)N2C | 81.1 | 59 | 37.5 | 14.2 | 7.27 | 7.08 | 7.54 | 7.91 | 7.3 | 6 | 5.18 | 76.5 | 47.9 | 25.6 | 9.07 | 6.95 | 7.44 | 7.22 | 7.34 | 7.64 | 6.82 | 5 | 66.4 | 44.7 | 34.2 | 11.8 | 7.65 | 8.72 | 8.82 | 8.65 | 8.6 | 7.68 | 5.52
2 | COC(=O)C/1=C(C)/N/C(=C(\C1C2=CC(=CC=C2)[N+]([O-])=O)C(=O)OCCCN3CCC(CC3)(C4=CC=CC=C4)C5=CC=CC=C5)C (stereo not drawn) | 113 | 94.1 | 114 | 42 | 95.5 | 104 | 100 | 109 | 90.3 | 94.8 | 98.6 | 93.4 | 97.7 | 98.2 | 39.7 | 90.3 | 97.8 | 98 | 95.7 | 104 | 106 | 91.1 | 100 | 92.3 | 100 | 43.2 | 97.2 | 95.6 | 101 | 112 | 96.5 | 100 | 102
3 | COc1ccc2[nH]cc(CCNC(C)=O)c2c1 | 91 | 110 | 113 | 116 | 127 | 114 | 114 | 101 | 103 | 117 | 106 | 112 | 123 | 124 | 124 | 117 | 114 | 124 | 102 | 110 | 123 | 119 | 121 | 131 | 114 | 144 | 125 | 113 | 120 | 104 | 100 | 124 | 113
4 | CCOC(=O)N[C@@H]1CC[C@@H]2[C@@H](C1)C[C@H]1C(=O)O[C@H](C)[C@H]1[C@H]2/C=C/c1ccc(-c2cccc(F)c2)cn1 | 86.6 | 87.5 | 102 | 111 | 105 | 104 | 111 | 99.5 | 112 | 104 | 75.7 | 95.9 | 81.8 | 98.5 | 107 | 111 | 107 | 106 | 103 | 103 | 100 | 23.3 | 108 | 87.3 | 110 | 112 | 117 | 115 | 108 | 119 | 112 | 112 | 37.1
5 | CCCCCN(CCC12CC3CC(CC(C3)C1)C2)C(=O)NCCCc1ccncc1 | 96.2 | 110 | 108 | 106 | 102 | 109 | 107 | 106 | 107 | 102 | 89.9 | 97.1 | 92.9 | 100 | 106 | 112 | 110 | 97.3 | 114 | 96.9 | 108 | 100 | 86.9 | 96 | 106 | 110 | 105 | 107 | 106 | 116 | 120 | 90.6 | 97
6 | NNc1nncc2ccccc12 | 76.2 | 105 | 109 | 103 | 117 | 122 | 112 | 136 | 126 | 117 | 132 | 87.8 | 114 | 128 | 128 | 152 | 125 | 156 | 162 | 131 | 134 | 115 | 89.6 | 124 | 125 | 143 | 152 | 135 | 147 | 163 | 153 | 156 | 158
7 | CC[C@H]1CN2CCc3cc(OC)c(OC)cc3[C@@H]2C[C@@H]1C[C@H]1NCCc2cc(OC)c(OC)cc21 | 40.6 | 88.1 | 71.5 | 73.9 | 89.7 | 38.6 | 11.8 | 10.1 | 7.04 | 7.04 | 6.06 | 46.7 | 94.3 | 67.6 | 79.9 | 90.9 | 61 | 14.7 | 11 | 8.47 | 9.05 | 7.9 | 35.8 | 99.2 | 74.9 | 96 | 113 | 67.8 | 22.2 | 13 | 9.62 | 9.49 | 8.97
8 | CC(C)(C)OC(=O)Nc1ccc(-c2cc(C(=O)NCCCCCCC(=O)NO)no2)cc1 | 87.5 | 87.7 | 95.7 | 102 | 77.4 | 99.6 | 102 | 72.4 | 33.5 | 4.09 | 4.02 | 94.9 | 88.1 | 102 | 101 | 74.7 | 101 | 107 | 44.2 | 30.2 | 4.09 | 4.76 | 84.3 | 83.2 | 79.8 | 88.9 | 79.7 | 90.7 | 87.7 | 28.1 | 20.1 | 3.52 | 3.79
9 | Clc1ccccc1C(c1ccccc1)(c1ccccc1)n1ccnc1 | 118 | 114 | 126 | 121 | 117 | 119 | 112 | 55.8 | 103 | 104 | 73.3 | 117 | 110 | 126 | 123 | 118 | 108 | 106 | 53.3 | 101 | 86.6 | 69.6 |  |  |  |  |  |  |  |  |  |  | 
10 | COc1cc(OC)c(C(=O)CCCN2CCCC2)c(OC)c1 | 119 | 117 | 127 | 114 | 115 | 108 | 115 | 113 | 93 | 107 | 109 | 122 | 143 | 118 | 135 | 126 | 118 | 127 | 112 | 109 | 105 | 123 |  |  |  |  |  |  |  |  |  |  | 
11 | NC(CO)C(=O)NNCc1ccc(O)c(O)c1O (stereo not drawn) | 93.3 | 116 | 105 | 89.9 | 106 | 99.8 | 102 | 103 | 104 | 89.4 | 84.2 | 99.8 | 104 | 101 | 84.7 | 101 | 105 | 98.3 | 96.1 | 72.9 | 99 | 12.6 | 103 | 105 | 104 | 89.2 | 95 | 88.5 | 100 | 91.4 | 90.5 | 87.8 | 18
12 | CCC(C1CCC(C)C(O1)C(C)C(O)C(C)C(=O)C(CC)C2OC\3(O[C@]4(CC[C@@](C)(O4)C5CC[C@@](O)(CC)C(C)O5)C(O)\C=C3)C(C)CC2C)C([O-])=O (stereo partly drawn) | 105 | 13.3 | 124 | 103 | 113 | 118 | 116 | 77.4 | 29.6 | 22.9 | 21.3 | 107 | 101 | 110 | 107 | 110 | 109 | 98.3 | 55 | 25.5 | 14.3 | 10.4 | 58.1 | 15 | 97.9 | 97.9 | 113 | 97.8 | 89.1 | 50.2 | 26.9 | 22.5 | 14.3
13 | N=C(N)Nc1ccc(C(=O)Oc2ccc3cc(C(=N)N)ccc3c2)cc1 | 95.5 | 87.7 | 87.7 | 92.8 | 96.7 | 25.8 | 102 | 105 | 95.4 | 99.4 | 79.2 | 91.5 | 87.6 | 85.5 | 83.1 | 86.1 | 21.5 | 88.7 | 93.6 | 88.8 | 93.4 | 84 | 112 | 90.4 | 87.3 | 113 | 91.7 | 29.6 | 99.6 | 110 | 92.3 | 110 | 80.4
14 | Cc1ccc(/C=N/NC(=O)c2ccccc2Oc2ccccc2)o1 | 102 | 101 | 87 | 85.8 | 109 | 96.9 | 89.6 | 94.9 | 93.5 | 91.7 | 90.9 | 107 | 98.2 | 93 | 106 | 102 | 104 | 99.4 | 104 | 93.6 | 98.6 | 90.5 | 147 | 102 | 91.7 | 102 | 91.8 | 101 | 97.5 | 97.4 | 66.5 | 92.5 | 73.4
15 | N#C/C(=C1/Nc2ccccc2S1)c1ccnc(OCc2ccc(CN3CCOCC3)cc2)n1 | 103 | 97.2 | 112 | 101 | 109 | 108 | 106 | 100 | 121 | 108 | 99.3 | 114 | 98.1 | 107 | 115 | 99.4 | 115 | 115 | 117 | 102 | 110 | 87.7 | 85 | 84.4 | 118 | 110 | 111 | 100 | 113 | 113 | 104 | 109 | 87.8
